Values joined by “and” are separate entries in the source; they are usually repeats but may differ in a detail not shown here. Identical values can stand only once.
Assays:
[1] = biological target: T1, coca-GlyR (α7(L141G,G175K,Y217F)–GlyR) (Homo sapiens, UniProt P23415+P36544, G175K/L141G/Y217F); assay: Membrane potential assay, coca-GlyR in HEK293; assay type: cell-based; settings: coca-GlyR; for Max normalized AVG: AVG of DRs
T1 construct: expressed in transfected cells; host or cells: HEK293 (ATCC CRL-1573), pcDNA3.1
T1 sequence (P36544+P23415 fused P36544:L141G/P36544:G175K/P36544:Y217F): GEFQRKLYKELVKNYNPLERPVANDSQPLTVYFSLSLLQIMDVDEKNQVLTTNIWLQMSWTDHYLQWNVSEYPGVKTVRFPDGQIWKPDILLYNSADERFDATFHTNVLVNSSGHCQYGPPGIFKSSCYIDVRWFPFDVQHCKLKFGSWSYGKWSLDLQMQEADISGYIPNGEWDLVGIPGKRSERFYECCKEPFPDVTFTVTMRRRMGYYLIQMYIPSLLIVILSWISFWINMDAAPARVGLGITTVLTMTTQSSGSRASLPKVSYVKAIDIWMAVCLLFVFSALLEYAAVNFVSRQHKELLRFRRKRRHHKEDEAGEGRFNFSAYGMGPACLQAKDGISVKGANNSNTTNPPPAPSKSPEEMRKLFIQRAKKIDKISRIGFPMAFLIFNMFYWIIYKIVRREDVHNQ

unmodified α7–GlyR = biological target: T2, unmodified α7–GlyR (Homo sapiens, UniProt P23415+P36544); assay: Membrane potential assay, unmodified α7–GlyR; assay type: cell-based; settings: a7-GlyR
T2 construct: expressed in transfected cells; host or cells: HEK293 (ATCC CRL-1573), pcDNA3.1
T2 sequence (P36544+P23415 fused): as the sequence (P36544+P23415 fused P36544:L141G/P36544:G175K/P36544:Y217F) above, with G119L, K153G, F195Y counted along it

unmodified α7–5HT3 = biological target: T3, unmodified α7–5HT3 (UniProt P23979+P36544, M226I/T225I); assay: Membrane potential assay, unmodified α7–5HT3; assay type: cell-based, human α7 nAChR LBD, mouse 5HT3 IPD; settings: a7-5Ht3; for Max normalized AVG: AVG of DR 1-3; for Max normalized, single replicate: relative to ACh max of the DR
T3 construct: expressed in transfected cells; host or cells: HEK293 (ATCC CRL-1573), pcDNA3.1
T3 sequence (P36544+P23979 fused P36544:T225I/P36544:M226I): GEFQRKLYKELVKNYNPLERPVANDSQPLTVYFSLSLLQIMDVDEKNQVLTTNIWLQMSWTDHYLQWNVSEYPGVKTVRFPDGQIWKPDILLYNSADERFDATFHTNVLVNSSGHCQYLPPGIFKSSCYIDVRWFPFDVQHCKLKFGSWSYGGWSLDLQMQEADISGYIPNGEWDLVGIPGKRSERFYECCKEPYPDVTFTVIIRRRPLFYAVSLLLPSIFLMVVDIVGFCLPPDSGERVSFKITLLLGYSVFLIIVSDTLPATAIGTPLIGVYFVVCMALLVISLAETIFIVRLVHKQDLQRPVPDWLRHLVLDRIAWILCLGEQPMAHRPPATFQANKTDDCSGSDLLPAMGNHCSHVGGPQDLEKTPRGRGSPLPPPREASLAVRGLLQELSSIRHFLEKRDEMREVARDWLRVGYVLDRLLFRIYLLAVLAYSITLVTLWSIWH

[2] = test system: coca-5HT3 in cultured hippocampal neurons; assay: Current-clamp of cultured hippocampal neurons expressing coca-5HT3; assay type: cell-based, rat; settings: coca-5HT3; coc (3 uM) relative to pre; unlabelled mean line
[3] = biological target: coca-5HT3 (α7(L141G,G175K,Y210F,Y217F)–5HT3) (Homo sapiens, UniProt P36544, G175K/L141G/Y210F/Y217F); assay: Membrane potential assay, coca-5HT3 in HEK293; settings: coca-5HT3; for Max normalized AVG: AVG of DRs
coca-5HT3 (α7(L141G,G175K,Y210F,Y217F)–5HT3), sequence (P36544 23-224 L141G/G175K/Y210F/Y217F): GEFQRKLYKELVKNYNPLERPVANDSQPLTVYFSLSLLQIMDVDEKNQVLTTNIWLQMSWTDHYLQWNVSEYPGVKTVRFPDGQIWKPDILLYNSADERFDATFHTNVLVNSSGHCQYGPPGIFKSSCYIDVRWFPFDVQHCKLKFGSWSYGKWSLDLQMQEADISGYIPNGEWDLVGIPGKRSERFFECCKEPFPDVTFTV
coca-5HT3 (α7(L141G,G175K,Y210F,Y217F)–5HT3), sequence (P23979 242-489, further chain): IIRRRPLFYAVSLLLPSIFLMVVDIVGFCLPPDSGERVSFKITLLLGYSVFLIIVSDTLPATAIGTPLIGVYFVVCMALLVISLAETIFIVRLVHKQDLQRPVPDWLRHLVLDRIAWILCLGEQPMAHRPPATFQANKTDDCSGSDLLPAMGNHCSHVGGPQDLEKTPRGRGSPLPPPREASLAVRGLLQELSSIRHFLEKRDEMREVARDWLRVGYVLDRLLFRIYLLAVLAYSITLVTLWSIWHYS

[4] = test system: hippocampal neurons expressing GFP; assay: Current-clamp of control cultured hippocampal neurons expressing GFP; assay type: cell-based, rat; settings: GFP; 3 uM relative to PRE; unlabelled mean line

## COC(=O)[C@H]1[C@@H](OC(=O)c2ccccc2)C[C@@H]2CC[C@H]1N2C [coc]
[1]; [coc] 0.0137174
  DR response, single replicate: 0.056 and 0.038 and 0.023 and 0.039 and 0.008 and 0.041
  Max normalized, single replicate: 0.03823 and 0.06336 and 0.05409 and 0.0128 and 0.05758 and 0.03944
  Max normalized AVG: 0.03793
[1]; [coc] 0.0411523
  DR response, single replicate: 0.06 and 0.037 and 0.017 and 0.078 and 0.025 and 0.015 and 0.049
  Max normalized, single replicate: 0.03722 and 0.04683 and 0.05159 and 0.03467 and 0.024 and 0.06882 and 0.04225
  Max normalized AVG: 0.04363
[1]; [coc] 0.123457
  DR response, single replicate: 0.034 (2×) and 0.037 and 0.031 and 0.077 and 0.02 and 0.024
  Max normalized, single replicate: 0.03722 and 0.0854 and 0.05093 and 0.02774 and 0.0384 and 0.04775 and 0.02394
  Max normalized AVG: 0.04448
[1]; [coc] 0.37037
  DR response, single replicate: 0.097 and 0.151 and 0.076 and 0.133 and 0.062 and 0.045 and 0.065
  Max normalized, single replicate: 0.1519 and 0.2094 and 0.08796 and 0.08599 and 0.072 and 0.09129 and 0.06831
  Max normalized AVG: 0.1095
[1]; [coc] 1.11111
  DR response, single replicate: 0.511 and 0.61 and 0.222 and 1.095 and 0.27 and 0.244 and 0.282
  Max normalized, single replicate: 0.6137 and 0.6116 and 0.7242 and 0.3745 and 0.3904 and 0.3961 and 0.3599
  Max normalized AVG: 0.4958
[1]; [coc] 3.33333
  DR response, single replicate: 1.226 and 0.859 and 0.343 and 1.133 and 0.644 and 0.538 and 0.653
  Max normalized, single replicate: 0.8642 and 0.9449 and 0.7493 and 0.8932 and 0.8608 and 0.9171 and 0.8634
  Max normalized AVG: 0.8704
[1]; [coc] 10
  DR response, single replicate: 1.42 and 0.941 and 1.448 and 0.721 and 0.62 and 0.712
  Max normalized, single replicate: 0.9467 and 1 (4×) and 0.9577 and 0.992
  Max normalized AVG: 0.9852
[1]; [coc] 30
  DR response, single replicate: 1.327 and 0.994 and 1.512 and 0.592 and 0.625
  Max normalized, single replicate: 1 (3×) and 0.8211 and 0.9345
  Max normalized AVG: 0.9511
[1]; largest response of each DR
  max (DR response of the replicate): 1.42 and 0.994 and 0.363 and 1.512 and 0.721 and 0.625 and 0.712
Unmodified α7–GlyR; concentration 0.0457247
  DR response, single replicate: 0.05 and 0.083 and 0.071
Unmodified α7–GlyR; concentration 0.137174
  DR response, single replicate: 0.031 and 0.061 and 0.045
Unmodified α7–GlyR; concentration 0.411523
  DR response, single replicate: 0.036 and 0.075 and 0.045
Unmodified α7–GlyR; concentration 1.23457
  DR response, single replicate: 0.032 and 0.049 and 0.043
Unmodified α7–GlyR; concentration 3.7037
  DR response, single replicate: 0.027 and 0.033 and 0.028
Unmodified α7–GlyR; concentration 11.1111
  DR response, single replicate: 0.032 and 0.038 and 0.034
Unmodified α7–GlyR; concentration 33.3333
  DR response, single replicate: 0.046 and 0.052 and 0.049
Unmodified α7–GlyR; concentration 100
  DR response, single replicate: 0.053 and 0.079 (2×)
Unmodified α7–5HT3; concentration 0.0457247
  DR response, single replicate: 0.035 and 0.029 and 0.04
  Max normalized AVG: 0.03558
  Max normalized, single replicate: 0.02736 and 0.03711 and 0.04227
Unmodified α7–5HT3; concentration 0.137174
  DR response, single replicate: 0.031 and 0.062 and 0.034
  Max normalized AVG: 0.04249
  Max normalized, single replicate: 0.05849 and 0.03154 and 0.03744
Unmodified α7–5HT3; concentration 0.411523
  DR response, single replicate: 0.023 and 0.07 and 0.034
  Max normalized AVG: 0.04179
  Max normalized, single replicate: 0.06604 and 0.03154 and 0.02778
Unmodified α7–5HT3; concentration 1.23457
  DR response, single replicate: 0.031 and 0.038 and 0.043
  Max normalized AVG: 0.03773
  Max normalized, single replicate: 0.03585 and 0.03989 and 0.03744
Unmodified α7–5HT3; concentration 3.7037
  DR response, single replicate: 0.019 and 0.031 and 0.039
  Max normalized AVG: 0.02946
  Max normalized, single replicate: 0.02925 and 0.03618 and 0.02295
Unmodified α7–5HT3; concentration 11.1111
  DR response, single replicate: 0.036 and 0.037 and 0.017
  Max normalized AVG: 0.03138
  Max normalized, single replicate: 0.03491 and 0.01577 and 0.04348
Unmodified α7–5HT3; concentration 33.3333
  DR response, single replicate: 0.037 and 0.071 and 0.05
  Max normalized AVG: 0.05268
  Max normalized, single replicate: 0.06698 and 0.04638 and 0.04469
Unmodified α7–5HT3; concentration 100
  DR response, single replicate: 0.055 and 0.086 and 0.089
  Max normalized AVG: 0.07671
  Max normalized, single replicate: 0.08113 and 0.08256 and 0.06643
[2]
  Rheobase Normalized, mean of cells: 0.5604
[3]; [coc] 0.0137174
  DR response, single replicate: 0.067 and 0.015 and 0.01 and 0.009 and 0.046 and 0.1 and 0.014
  Max normalized, single replicate: 0.01571 and 0.04202 and 0.03502 and 0.04968 and 0.07513 and 0.01777 and 0.06549
  Max normalized AVG: 0.04297
[3]; [coc] 0.0411523
  DR response, single replicate: 0.051 and 0.054 and 0.011 and 0.02 and 0.076 and 0.06 and 0.008 and 0.009
  Max normalized, single replicate: 0.05654 and 0.04622 and 0.07782 and 0.08207 and 0.04508 and 0.01015 and 0.007098 and 0.04985
  Max normalized AVG: 0.04686
[3]; [coc] 0.123457
  DR response, single replicate: 0.063 and 0.015 and 0.01 and 0.013 (2×) and 0.056 and 0.037 and 0.035
  Max normalized, single replicate: 0.01571 and 0.04202 and 0.05058 and 0.06048 and 0.0278 and 0.04442 and 0.01025 and 0.06158
  Max normalized AVG: 0.0391
[3]; [coc] 0.37037
  DR response, single replicate: 0.098 and 0.161 and 0.012 and 0.019 and 0.144 and 0.109 and 0.122 and 0.014
  Max normalized, single replicate: 0.1686 and 0.05042 and 0.07393 and 0.1555 and 0.08189 and 0.1548 and 0.01104 and 0.0958
  Max normalized AVG: 0.099
[3]; [coc] 1.11111
  DR response, single replicate: 0.363 and 0.54 and 0.108 and 0.033 and 0.699 and 0.66 and 0.506 and 0.355
  Max normalized, single replicate: 0.5654 and 0.4538 and 0.1284 and 0.7549 and 0.4959 and 0.6421 and 0.28 and 0.3548
  Max normalized AVG: 0.4594
[3]; [coc] 3.33333
  DR response, single replicate: 0.825 and 0.861 and 0.191 and 0.144 and 0.926 and 1.093 and 0.788 and 0.762
  Max normalized, single replicate: 0.9016 and 0.8025 and 0.5603 and 1 (2×) and 0.8212 and 0.6009 and 0.8065
  Max normalized AVG: 0.8116
[3]; [coc] 10
  DR response, single replicate: 1.023 and 0.955 and 0.229 and 0.257 and 0.908 and 1.331 and 0.736 and 1.159
  Max normalized, single replicate: 1 (4×) and 0.9622 and 0.9806 and 0.934 and 0.914
  Max normalized AVG: 0.9738
[3]; [coc] 30
  DR response, single replicate: 0.864 and 0.903 and 0.238 and 0.251 and 1.268
  Max normalized, single replicate: 0.9456 and 1 (2×) and 0.9767 and 0.8446
  Max normalized AVG: 0.9534
[3]; largest response of each DR
  max (DR response of the replicate): 1.023 and 0.955 and 0.238 and 0.257 and 0.926 and 1.331 and 0.788 and 1.268
[4]
  Rheobase Normalized, mean of cells: 1.094

From article PMC12527922, “Cocaine chemogenetics blunts drug-seeking by synthetic physiology” (Nature, 2025)
